Patent publication US20100324285A1, “ANTIINFLAMMATORY AGENT COMPRISING 2-AMINOPHENOL OR DERIVATIVE THEREOF AS ACTIVE INGREDIENT” (priority 2006, published 2010)

Assays:
RAW264.7 cells = experiment: PGE2 production by macrophage RAW264.7, PGE2-EIA kit; format: cell-based, mouse; settings: LPS + IFN-γ, 2 days, relative level versus control
From the text: RAW264.7 cells, a murine macrophage cell strain, were suspended in PRMI1640 medium supplied with 10% (v/v) fetal calf serum (hereinafter abbreviated as “FCS”) to give a cell suspension with a cell concentration of 1×10^6 cells/ml. […] The experimental system without the test samples described above was set as control. […] NO production, PGE2 production and macrophage growth are indicated as relative levels versus controls.

RBL-2H3 = experiment: Degranulation reaction of basocyte (β-hexosaminidase release); format: cell-based, rat
Protocol: Degranulation rate (%) and inhibition rate of degranulation (%) were calculated based on the measurements of β-hexosaminidase activity in the granules released from the cells by degranulation reaction.
Rat cancer cells from basocyte RBL-2H3(catalognumber“JCRB0023”, commercialized by Health Science Research Resources Bank of Japan Health Sciences Foundation), known to be degranulated by cross-linkage of IgE, were used after cultured in a MEM medium (commercialized by Nissui Pharmaceutical Co., Ltd.) supplemented with 10% (v/v) FCS.
The above cells were recovered from a flask by conventional trypsin-EDTA treatment, then suspended in a MEM medium supplemented with 10% (v/v) FCS to give a cell concentration of 5×10^5 cells/ml. The suspension was inoculated to a 24-well microplate in a volume of 400 μl per well, cultured in a 5% (v/v) carbon dioxide incubator for 3 to 5 hours, then admixed with 0.625 μg/ml of anti dinitrophenol (hereinafter abbreviated as “DNP”) mouse IgE (commercialized by Sigma-Aldrich, Inc., diluted by MEM medium supplied with 10% (v/v) FCS) in a volume of 100 μl per well to sensitize the cells by IgE (a final concentration of the anti DNP-IgE was 0.125 μg/ml). After the cells were cultured in the 5% (v/v) carbon dioxide incubator overnight, the supernatant was removed by suction, and then each well was washed twice with Siraganian buffer (119 mM NaCl, 5 mM KCl, 0.4 mM MgCl2, 25 mM piperazine-N,N″-bis(2-ethane sulfonic acid) (PIPES), 40 mM NaOH, pH 7.2) by 500 μl per well. After admixed with Siraganian buffer containing 0.1% bovine serum albumin (BSA), 5.6 mM glucose and 1 mM CaCl2 (hereinafter described as “BSA-containing Siraganian buffer) in a volume of 160 μl per well, the microplate was warmed at 37° C. for 15 minutes. As test samples, 2-aminophenoxazine-3-one (questiomycin A), arbutin having skin-whitening effect and oxatomide used as therapeutic agents for allergic diseases (positive control) were diluted with BSA-containing Siraganian buffer to give the concentrations shown in Table 3, any of the test samples was added by 20 μl per well, then the microplate was warmed at 37° C. for 15 minutes (wells with the test samples). The well with any of the test samples was admixed with DNP-albumin (commercialized by Sigma-Aldrich, Inc.) diluted with BSA-containing Siraganian buffer to give a concentration of 50 μg/ml by 20 μl per well, and warmed at 37° C. for 15 minutes. After the 24-well microplate was cooled on ice for 10 minutes, the supernatant was collected and 100 μl thereof was injected into a 96-well microplate to measure the β-hexosaminidase activity in the supernatant. As negative control, BL-2H3 cells were cultured and treated in the same way as the wells admixed with the test samples except for that FCS-supplemented MEM medium containing no antibody was used, and the β-hexosaminidase activity in the supernatant was measured (the well without IgE sensitization). After the supernatants were removed from some of the wells without IgE sensitization, the wells were washed twice with BSA-containing Siraganian buffer and admixed with BSA-containing Siraganian buffer by 200 μl per well. The cells were broken by twice repeating freezing at −80° C. and thawing, whole medium containing the broken cells was collected, centrifuged at 1,500 rpm for 10 minutes, and then 100 μl of the supernatant was injected into a 96-well microplate to measure the β-hexosaminidase activity of the whole granule extract.
Each well of the 96-well microplate injected with any of the supernatant from the wells with the test samples, the supernatant from the wells without IgE sensitization or the whole granule extract described above was admixed with 50 μl of citrate buffer (pH 4.5) containing 1 mM 4-nitrophenyl-N-acetyl-β-glucosaminide (PNAG) as substrate, kept at 37° C. for 1 hour, and then the reaction was stopped by adding 50 μl of 0.1 M sodium carbonate (pH 10.5). […]

## Nc1cc2nc3ccccc3oc-2cc1=O [2-Aminophenoxazine-3-one, 2-aminophenoxazine-3-one]
RAW264.7 cells; 0.16 μM
  PGE2 production (%): 76%
RAW264.7 cells; 0.31 μM
  PGE2 production (%): 45%
RAW264.7 cells; 0.63 μM
  PGE2 production (%): 13%
RAW264.7 cells; 1.3 μM
  PGE2 production (%): 6%
RAW264.7 cells; 2.5 μM
  PGE2 production (%): 1%
RAW264.7 cells; 5.0 μM
  PGE2 production (%): 3%
RAW264.7 cells; 10 μM
  PGE2 production (%): 2%
RBL-2H3; Rattus norvegicus, RBL-2H3, 0.63 μM, read-out: Inhibition intensity of degranulation
  inhibition at 0.63 µM: -30 to 30%
RBL-2H3; Rattus norvegicus, RBL-2H3, 5 μM, read-out: Inhibition intensity of degranulation
  inhibition at 5 µM: 30 to 50%
RBL-2H3; Rattus norvegicus, RBL-2H3, 10 μM, read-out: Inhibition intensity of degranulation
  inhibition at 10 µM: ≥ 50%
RBL-2H3; Rattus norvegicus, RBL-2H3, 23 μM, read-out: Inhibition intensity of degranulation
  inhibition at 23 µM: ≥ 50%
RBL-2H3; Rattus norvegicus, RBL-2H3, 31.3 μM, read-out: Inhibition intensity of degranulation
  inhibition at 31.3 µM: ≥ 50%
RBL-2H3; Rattus norvegicus, RBL-2H3, 40 μM, read-out: Inhibition intensity of degranulation
  inhibition at 40 µM: ≥ 50%
RBL-2H3; summary of Table 3
  concentration at which inhibiting activity on degranulation was exerted: ≥ 5 µM
